Results reported in US11566029B2, “Pyrazolo[1,5-a]pyrimidine-5,7-diamine compounds as CDK inhibitors and their therapeutic use” (CANCER RESEARCH TECHNOLOGY LIMITED, priority 2014, dated 2023).
Where a name gives a salt, the structure may show the parent alone.

Legend:
[1] = target: T1, CDK1/cycA1 (Homo sapiens, UniProt P06493); assay: In vitro kinase assay (PKLight luciferase ATP readout), CDK1; type: biochemical; details: ATP at Km; read-out: In vitro Kinase Inhibition CDK1 IC50
T1 construct: purchased ProQinase GmbH
Protocol: (§1) Purified recombinant CDK1/cycA1, CDK2/cycA1, CDK4/cycD1, CDK5/p35NCK, CDK6/cycD1, CDK7/CycH/MAT1, and CDK9/CycT1 were purchased from ProQinase GmbH. Kinase assays were performed according to manufacturer's protocols. Rb-CTF (ProQinase GmbH) (cat number: 0040-0000-6) was used as the kinase substrate for CDK1, CDK2, CDK4, and CDK6 kinases. […] A luciferase assay (PKLight assay; Cambrex) was used to determine ATP remaining at the end of the kinase reaction, which provides a measure of kinase activity, according to the manufacturer's protocols.
(§2) Kinase assays were carried out by incubation of increasing amounts of test compound with purified recombinant CDK-Cyclin complex, followed by measurement of free ATP remaining in the reaction using the luciferase assay kit (PKLight, Cambrex) which therefore provided a measure of inhibition for the specific CDK.
(§3) 5 μL of 1× kinase buffer (Cell Signalling Technologies) was mixed with 200 ng CDK1, 200 ng CDK2, 50 ng CDK4, 100 ng CDK5, or 200 ng CDK6 with 5 μg Rb-CTF and 300 ng CDK7 or 200 ng CDK9 with 500 μM RNA Poll II CTD peptide. […] The mixture was incubated at 30° C. for 30 minutes. The reaction is stopped with 20 μL of Stop Solution (provided in the PKLight kit) for 10 minutes at room temperature. Then 40 μL of the luciferase mix was added to the reaction mixture which was incubated for a further 10 minutes at room temperature and measured using the Tecan Infinite 2000 plate reader. GraphPad Prism Software was used to generate standard curve and determine the IC50's for each CDK.

[2] = target: T2, CDK7/CycH/MAT1 (Homo sapiens, UniProt P50613); assay: In vitro kinase assay (PKLight luciferase ATP readout), CDK7; type: biochemical; details: for IC50: ATP at Km, read-out: In vitro Kinase Inhibition CDK7 IC50; for Selectivity CDK1/CDK7: ratio of CDK1 IC50 to CDK7 IC50; for Selectivity CDK2/CDK7: ratio of CDK2 IC50 to CDK7 IC50
T2 construct: purchased ProQinase GmbH
Protocol: as §1, §2, §3

[3] = test system: MCF7 cells; assay: Cell growth inhibition assay (sulforhodamine B), MCF7; type: cell-based; details: Homo sapiens, 72 hours, SRB assay, read-out: Growth Inhibition, GI50 MCF7
Protocol: (§4) All cells were purchased from the American Type Culture Collection (ATCC) and MCF7 cells were routinely cultured in Dulbecco's Modified Eagle's Medium (DMEM) supplemented with 10% fetal calf serum (FCS) (First Link) and HCT116 cells were routinely cultured in Roswell Park Memorial Instititute Medium (RPMI) supplemented with 10% FCS. Cell growth was assessed using a known sulforhodamine B assay (see, e.g., Skehan et al., 1990).
(§5) MCF-7 cells purchased from ATCC (USA) were routinely passaged in DMEM, supplemented with 10% FCS and HCT116 cells purchased from ATCC (USA) were routinely passaged in RPMI supplemented with 10% FCS and kept in a 37° C. incubator with 5% CO2. The growth assay for both cell lines was performed in the appropriate media using the exact same protocol as described here. For the growth assay, 5000 cells were seeded into each well of 96-well plates in DMEM containing 10% FCS. Test compounds prepared in DMSO were added to the medium at concentrations ranging from 0.00038-100 μM. The cells were incubated for a further 72 hours, at which time they were fixed by the addition of 100 μL/well of ice-cold 40% trichloroacetic acid (TCA). The plates were left for 1 hour at 4° C., washed in water and 100 μL of 0.4% (w/v) sulforhodamine (SRB; Sigma-Aldrich, UK) prepared in 1% acetic acid was added. Plates were washed in 1% acetic acid to remove excess SRB reagent, air dried, and bound dye was solubilized by the addition of 100 μL of 10 mM tris base. The plates were read at 492 nm using a plate reader.

[4] = test system: HCT116 cells; assay: Cell growth inhibition assay (sulforhodamine B), HCT116; type: cell-based; details: Homo sapiens, HCT-116; 72 hours, SRB assay; read-out: Growth Inhibition, GI50 HCT116
Protocol: as §4, §5

[5] = target: T3, CDK2/cycA1 (Homo sapiens, UniProt P24941); assay: In vitro kinase assay (PKLight luciferase ATP readout), CDK2; type: biochemical; details: ATP at Km; read-out: In vitro Kinase Inhibition CDK2 IC50
T3 construct: purchased ProQinase GmbH
Protocol: as §1, §2, §3

T2 sequence (P50613 whole entry): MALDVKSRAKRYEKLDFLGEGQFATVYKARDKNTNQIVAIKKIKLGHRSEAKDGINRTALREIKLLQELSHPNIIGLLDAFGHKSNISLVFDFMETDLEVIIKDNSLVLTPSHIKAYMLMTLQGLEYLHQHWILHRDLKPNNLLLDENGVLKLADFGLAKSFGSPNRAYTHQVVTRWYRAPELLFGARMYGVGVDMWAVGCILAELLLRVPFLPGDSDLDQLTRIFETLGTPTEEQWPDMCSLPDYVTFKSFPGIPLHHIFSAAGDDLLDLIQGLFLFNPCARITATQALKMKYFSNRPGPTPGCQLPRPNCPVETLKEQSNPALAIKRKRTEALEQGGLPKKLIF
T2 sequence (P51946 whole entry partner): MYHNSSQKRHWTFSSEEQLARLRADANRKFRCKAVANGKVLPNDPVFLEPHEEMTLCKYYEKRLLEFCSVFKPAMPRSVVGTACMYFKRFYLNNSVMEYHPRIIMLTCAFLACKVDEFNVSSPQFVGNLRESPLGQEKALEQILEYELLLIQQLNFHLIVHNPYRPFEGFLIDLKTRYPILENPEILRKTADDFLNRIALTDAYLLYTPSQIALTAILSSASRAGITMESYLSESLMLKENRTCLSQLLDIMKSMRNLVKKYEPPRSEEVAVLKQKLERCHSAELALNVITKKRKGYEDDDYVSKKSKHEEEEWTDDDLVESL
T2 sequence (P51948 whole entry partner): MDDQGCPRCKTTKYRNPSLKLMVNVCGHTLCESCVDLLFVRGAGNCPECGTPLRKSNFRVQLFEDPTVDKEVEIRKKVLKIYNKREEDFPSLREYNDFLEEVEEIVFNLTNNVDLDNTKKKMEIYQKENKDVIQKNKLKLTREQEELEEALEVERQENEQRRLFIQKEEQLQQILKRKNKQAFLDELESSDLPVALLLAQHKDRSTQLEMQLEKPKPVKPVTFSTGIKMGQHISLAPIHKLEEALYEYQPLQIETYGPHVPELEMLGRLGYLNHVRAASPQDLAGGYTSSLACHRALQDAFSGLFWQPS

Compound | IC50 [1] [nM] | IC50 [2] [nM] | Selectivity CDK1/CDK7 [2] [fold] | Selectivity CDK2/CDK7 [2] [fold] | GI50 [3] [nM] | GI50 [4] [nM] | IC50 [5] [nM]
CC(C)c1cnn2c(Nc3ccc(N4CCN(C)CC4)cc3)cc(NC[C@H]3CCNC[C@@H]3O)nc12 [PPDA-007, (3R,4R)-4-((3-iso-Propyl-7-(4-(4-methylpiperazin-1-yl)phenylamino)pyrazolo[1,5-a]pyrimidin-5-ylamino)methyl)piperidin-3-ol hydrochloride] | 1150 | 461 | 2.5 | 1.1 | 2100 | 4100 | 503
CC(C)c1cnn2c(Nc3csc4ccccc34)cc(NC[C@H]3CCNC[C@@H]3O)nc12 [PPDA-008] | 2950 | 120 | 25 | 0.4 | 3100 | 5100 | 42
CC(C)c1cnn2c(NC(=O)C3CCNCC3)cc(NC[C@H]3CCNC[C@@H]3O)nc12 [PPDA-009, N-(5-((((3R,4R)-3-Hydroxypiperidin-4-yl)methyl)amino)-3-iso-propylpyrazolo[1,5-a]pyrimidin-7-yl)piperidine-4-carboxamide hydrochloride] | 559 | 462 | 1.2 | 1.0 | 38900 | 86600 | 459
CC(C)c1cnn2c(NCc3ccncc3)cc(NCC3(O)CCNCC3)nc12 [PPDA-010, 4-(((3-iso-Propyl-7-((pyridin-4-ylmethyl)amino)pyrazolo[1,5-a]pyrimidin-5-yl)amino)methyl)piperidin-4-ol hydrochloride] | 3620 | 788 | 4.6 | 0.1 | 11900 | 25000 | 115
CC(C)c1cnn2c(NCc3ccccc3Cl)cc(NCC3(O)CCNCC3)nc12 [PPDA-011] | 143 | 414 | 0.3 | 0.2 | 300 | 1600 | 98
CC(C)c1cnn2c(NCc3ccccc3Br)cc(NCC3(O)CCNCC3)nc12 [PPDA-012] | 74 | 484 | 0.2 | 0.2 | 500 | 1600 | 118
CC(C)c1cnn2c(NCC3CCCCC3)cc(NCC3(O)CCNCC3)nc12 [PPDA-013] | 330 | 80 | 4.1 | 4.3 | 1200 | 1100 | 344
CC(C)c1cnn2c(NCC3CCCCC3)cc(N[C@H]3CNC[C@H]3O)nc12 [PPDA-016] | 1460 | 246 | 5.9 | 18 | 13100 | 7400 | 4550
CC(C)c1cnn2c(NCc3ccc(C(F)(F)F)cc3)cc(N[C@H]3CNC[C@H]3O)nc12 [PPDA-017] | 1350 | 1890 | 0.7 | 0.4 | 12800 | 11400 | 754
CC(C)c1cnn2c(NCc3ccccc3)cc(N[C@@H]3CNCC[C@H]3O)nc12 [PPDA-022, (3R,4R)-3-(7-(Benzylamino)-3-iso-propyl-pyrazolo[1,5-a]pyrimidin-5-ylamino) piperidin-4-ol] | 1900 | 73 | 26 | 7.8 | 3700 | 10400 | 568
CO[C@@H]1CCNCC1Nc1cc(NCc2ccccc2)n2ncc(C(C)C)c2n1 (stereo partly drawn) [PPDA-023] | 1200 | 60 | 20 | 7.5 | 3700 | 5600 | 450
CC(C)c1cnn2c(NCc3ccccc3)cc(N[C@H]3CNCC[C@@]3(O)CO)nc12 [PPDA-024] | 844 | 150 | 5.6 | 6.8 | 12200 | 46400 | 1030
CC(C)c1cnn2c(NCc3ccccc3)cc(N[C@@H]3CN[C@H](CO)C3)nc12 [PPDA-026, ((2S,4S)-4-(7-(Benzylamino)-3-iso-propylpyrazolo[1,5-a]pyrimidin-5-ylamino)pyrrolidin-2-yl)methanol hydrochloride] | 162 | 89 | 1.8 | 2.3 | 2000 | 10700 | 203
COC[C@H]1C[C@@H](Nc2cc(NCc3ccccc3)n3ncc(C(C)C)c3n2)CN1 [PPDA-027] | 253 | 18 | 14 | 38 | 3400 | 8900 | 680
CC(C)c1cnn2c(NCc3ccccc3)cc(N[C@H]3CN[C@@H](CO)C3)nc12 [PPDA-028] | 4010 | 43 | 93 | 6.1 | 3300 | 7300 | 262
